Data set [1] has as its target T1, E. coli OGDHc E1 (Escherichia coli, UniProt P0AFG3).
T1 sequence (P0AFG3 1-933): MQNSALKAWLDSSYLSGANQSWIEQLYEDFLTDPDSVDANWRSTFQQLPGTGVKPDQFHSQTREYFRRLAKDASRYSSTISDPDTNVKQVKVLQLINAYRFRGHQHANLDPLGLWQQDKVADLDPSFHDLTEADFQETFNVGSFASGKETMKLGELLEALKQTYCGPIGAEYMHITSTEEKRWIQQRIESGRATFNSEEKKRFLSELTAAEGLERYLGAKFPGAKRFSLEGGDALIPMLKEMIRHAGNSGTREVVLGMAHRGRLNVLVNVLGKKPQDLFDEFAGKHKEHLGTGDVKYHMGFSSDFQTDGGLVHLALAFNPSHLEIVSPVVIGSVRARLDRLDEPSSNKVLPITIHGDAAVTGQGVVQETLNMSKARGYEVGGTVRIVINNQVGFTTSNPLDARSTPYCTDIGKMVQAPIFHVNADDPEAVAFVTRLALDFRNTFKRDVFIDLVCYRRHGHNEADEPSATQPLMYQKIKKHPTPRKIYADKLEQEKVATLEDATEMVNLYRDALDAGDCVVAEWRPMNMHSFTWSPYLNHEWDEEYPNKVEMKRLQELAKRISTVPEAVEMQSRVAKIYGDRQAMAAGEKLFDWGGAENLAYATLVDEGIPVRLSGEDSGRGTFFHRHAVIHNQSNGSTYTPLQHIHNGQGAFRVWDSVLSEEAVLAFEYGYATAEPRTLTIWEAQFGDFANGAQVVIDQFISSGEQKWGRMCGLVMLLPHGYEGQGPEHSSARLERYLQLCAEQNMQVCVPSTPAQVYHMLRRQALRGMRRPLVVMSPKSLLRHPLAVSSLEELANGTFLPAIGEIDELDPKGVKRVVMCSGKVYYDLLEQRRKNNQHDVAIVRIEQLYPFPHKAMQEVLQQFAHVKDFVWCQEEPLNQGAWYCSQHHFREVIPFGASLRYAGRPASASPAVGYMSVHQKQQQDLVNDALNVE
Briefly: E. coli OGDHc E1 inhibitory activity assay (DCPIP reduction). It counts as biochemical. Conditions: E. coli OGDHc E1; read-out: KM(ThDP) OGDHc E1. How it is done:
E. coli OGDHc E1 inhibitory activity assay. E. coli OGDHc E1 was from our previous work 5 and had been donated by R. Frank. Its activity was determined by monitoring DCPIP reduction at 600 nm using a microplate reader (CLARIOstar) and conducted as described 1,2 with some modifications. The percentage inhibition of compounds against E. coli OGDHc E1 was assayed at a final concentration of 250 µM. The reaction buffer (50 mM KH 2PO4 and 2 mM MgCl 2, pH 7) contained 50 µM ThDP (or 125 µM in the competition assay), 0.5 mM DCPIP, and 6.7 mg/ml E. coli OGDHc E1. The reaction mixture was preincubated at 37 °C for 60 min, then reaction was initiated by adding α-ketoglutarate to a final concentration of 10 mM. To determine the IC 50, ThDP concentration was lowered to 30 µM, and inhibitor concentration was varied (2-1000 µM). Specific activity was calculated using the molar […]
for the PDHc E1 assay. […] 5 […]

The target of data set [2] is T2, porcine PDHc E1 (Sus scrofa, UniProt P29804).
T2 sequence (P29804 31-390): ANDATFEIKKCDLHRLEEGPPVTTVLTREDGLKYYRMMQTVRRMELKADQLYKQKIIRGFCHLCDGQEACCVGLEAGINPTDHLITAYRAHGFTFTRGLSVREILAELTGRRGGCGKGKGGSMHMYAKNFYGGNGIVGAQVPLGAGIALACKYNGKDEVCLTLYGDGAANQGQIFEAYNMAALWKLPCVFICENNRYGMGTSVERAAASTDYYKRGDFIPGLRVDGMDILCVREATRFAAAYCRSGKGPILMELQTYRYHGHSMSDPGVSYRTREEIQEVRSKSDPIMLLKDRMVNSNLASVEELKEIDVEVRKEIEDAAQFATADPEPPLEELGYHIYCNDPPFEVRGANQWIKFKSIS
Briefly: PDHc E1 inhibitory activity assay (DCPIP reduction). It counts as biochemical. Conditions: porcine PDHc E1; read-out: KM(ThDP) PDHc E1. How it is done:
Enzyme assays – Methods and Results S1
Ligand efficiencies – Calculations S3 […]
Enzyme assays (Methods and Results)
PDHc E1 inhibitory activity assay. Porcine PDHc E1 was purchased from Sigma. Its activity was […]
determined by monitoring 2,6-dichlorophenolindophenol (DCPIP) reduction at 600 nm using a […]
microplate reader (CLARIOstar) and conducted as described 1,2 with some modifications. The percentage inhibition of compounds against porcine PDHc E1 was assayed at a final concentration of 250 µM. The reaction buffer (50 mM KH 2PO4 and 1 mM MgCl 2, pH 7) contained 50 µM ThDP (or 125 µM in the competition assay), 0.25 mM DCPIP, and 2 mg/ml porcine PDHc E1. The reaction mixture […]
was preincubated at 37 °C for 30 min, then the reaction was initiated by adding pyruvate to a final […]
concentration of 50 mM. To determine the half-maximal inhibitory concentration (IC 50 ), ThDP […]
concentration was lowered to 10 µM, and inhibitor concentration was varied (0.4-200 µM). Specific […]
activity was calculated using the molar extinction coefficient of DCPIP, 21 mM -1 cm-1.3 The enzyme […]
IC50 values were calculated from non-linear regression curve fitting using GraphPad Prism.

For data set [3], the target named is PDC from Zymomonas mobilis. More on the design: method as in PMID 19082157, PMID 20099870. As to conditions: ref [8],[24]; cited from earlier work.
Data set [4] deals with P. falciparum strain 3D7. Conditions: thiamine 2.97 μM vs absence of thiamine; ref [15]; cited from earlier work.
Data set [5] concerns P. falciparum 3D7 expressing PfTPK-GFP. Set-up: method as in PMID 23804074. As to conditions: thiamine-free culture medium; ref [15]; cited from earlier work.
Substrate in data set [6]: Cc1ncc(C[n+]2csc(CCO[P@](=O)(O)OP(=O)(O)O)c2C)c(N)n1
Briefly: Z. mobilis PDC inhibitory activity assay (NADH consumption). It counts as biochemical, Zymomonas mobilis. As to conditions: pH 7.0; 37.0 °C.

Substrate in data set [7]: Cc1ncc(C[n+]2csc(CCO[P@](=O)(O)OP(=O)(O)O)c2C)c(N)n1
Kind of data set: A. viridans PO inhibitory activity assay (quinoneimine dye). In kind it is biochemical, Aerococcus viridans. Conditions: other: A. viridans PO; 37.0 °C. How it is done: A. viridans PO inhibitory activity assay. A. viridans PO and horseradish peroxidase were purchased from Sigma. A. viridans PO activity was determined by monitoring appearance of quinoneimine dye at 550 nm using a microplate reader (CLARIOstar) and conducted as described 1 with some modifications.
The percentage inhibition of compounds against A. viridans PO was assayed at a final concentration of 250 µM. The reaction buffer (50 mM KH 2PO4 and 10 mM MgCl 2, pH 5.9) contained 50 µM ThDP (or 125 µM in the competition assay), 10 µM flavin adenine dinucleotide (FAD), 0.15% 4-Aminoantipyrine, 0.3% N-Ethyl-N-(2-hydroxy-3-sulfopropyl)-m-toluidine (EHSPT), 50 µg/mL horseradish peroxidase and 0.35 U/mL A. viridans PO. The reaction mixture was preincubated at 37 °C for 30 min, then reaction was initiated by adding pyruvate to a final concentration of 50 mM. To determine the IC 50, inhibitor concentration was varied (2-1000 µM) with ThDP concentration at 50 µM. 1 unit of PO activity is defined as 1 μmol of hydrogen peroxide produced per minute. The enzyme IC 50 values were calculated as described for the PDHc E1 assay. […]

Regarding `Cc1ncc(C[n+]2csc(CCO[P@](=O)(O)OP(=O)(O)O)c2C)c(N)n1` [ThDP, thiamine diphosphate], the Michaelis-Menten constant (Km) in data set [1] worked out at 3 µM; in data set [2], 0.05 µM.

As for `Cc1ncc(Cn2cc(CCOP(=O)(O)OP(=O)(O)O)nn2)c(N)n1` [Triazole-ThDP 5], the Ki in data set [3] was 0.03 nM.

On to `Cc1ncc(C[n+]2csc(CCO)c2C)c(O)n1` [Compound 7a, oxythiamine], for which the “fold increase of IC50 with added thiamine” value in data set [4] is recorded as 470 fold. The “fold more sensitive, parasite over-expressing TPK vs parasite bearing an empty plasmid” value in data set [5] was 70 fold.

B1: Z. mobilis PDC (Zymomonas mobilis subsp. mobilis ZM4 = ATCC 31821) (protein)
chain: MSYTVGTYLAERLVQIGLKHHFAVAGDYNLVLLDNLLLNKNMEQVYCCNELNCGFSAEGYARAKGAAAAVVTYSVGALSAFDAIGGAYAENLPVILISGAPNNNDHAAGHVLHHALGKTDYHYQLEMAKNITAAAEAIYTPEEAPAKIDHVIKTALREKKPVYLEIACNIASMPCAAPGPASALFNDEASDEASLNAAVEETLKFIANRDKVAVLVGSKLRAAGAEEAAVKFADALGGAVATMAAAKSFFPEENPHYIGTSWGEVSYPGVEKTMKEADAVIALAPVFNDYSTTGWTDIPDPKKLVLAEPRSVVVNGIRFPSVHLKDYLTRLAQKVSKKTGALDFFKSLNAGELKKAAPADPSAPLVNAEIARQVEALLTPNTTVIAETGDSWFNAQRMKLPNGARVEYEMQWGHIGWSVPAAFGYAVGAPERRNILMVGDGSFQLTAQEVAQMVRLKLPVIIFLINNYGYTIEVMIHDGPYNNIKNWDYAGLMEVFNGNGGYDSGAGKGLKAKTGGELAEAIKVALANTDGPTLIECFIGREDCTEELVKWGKRVAAANSRKPVNKLL
notes: made in house
In the case of B1, in data set [6], the Km came out at 0.35 µM.

B2: A. viridans PO (Aerococcus viridans) (protein)
chain: MSDNKINIGLAVMKILESWGADTIYGIPSGTLSSLMDAMGEEENNVKFLQVKHEEVGAMAAVMQSKFGGNLGVTVGSGGPGASHLINGLYDAAMDNIPVVAILGSRPQRELNMDAFQELNQNPMYDHIAVYNRRVAYAEQLPKLVDEAARMAIAKRGVAVLEVPGDFAKVEIDNDQWYSSANSLRKYEPIAPAAQDIDAAVELLNNSKRPVIYAGIGTMGHGPAVQELARKIKAPVITTGKNFETFEWDFEALTGSTYRVGWKPANETILEADTVLFAGSNFPFSEVEGTFRNVDNFIQIDIDPAMLGKRHHADVAILGDAGLAIDEILNKVDAVEESAWWTANLKNIANWREYINMLETKEEGDLQFYQVYNAINNHADEDAIYSIDVGNSTQTSIRHLHMTPKNMWRTSPLFATMGIAIPGGLGAKNTYPDRQVWNIIGDGAFSMTYPDVVTNVRYNMPVINVVFSNTEYAFIKNKYEDTNKNLFGVDFTDVDYAKIAEAQGAKGFTVSRIEDMDRVMAEAVAANKAGHTVVIDCKITQDRPIPVETLKLDSKLYSEDEIKAYKERYEAANLVPFREYLEAEGLESKYIK
For the molecule B2, the Michaelis-Menten constant (Km) in data set [7] was found to be 5 µM.

What is called Km is the substrate concentration at which the rate is half of its maximum. In general, Ki refers to a measure of affinity in units of concentration, obtained from inhibition or displacement.

The values above are taken from paper PMC10184313, “Inhibition of Thiamine Diphosphate-Dependent Enzymes by Triazole-Based Thiamine Analogues” (ACS Medicinal Chemistry Letters, 2023).
